Test results from PMC12796071, “Evaluation of [^18F]MNI-1054, a novel PET ligand for lysine-specific histone demethylase 1A (LSD1), in non-human primates” (EJNMMI Research, 2025).
Several values for one entry are separate records, joined by “and”; a condition that tells them apart may be missing. Identical values can stand only once. Entries after “also recorded” stand apart in the source; their conditions may differ.

What was measured:
[1] = TAK-418 plasma concentration after 5-minute intravenous bolus; type: in vivo, rhesus monkeys (macaca mulatta); conditions: 0.3 mg/kg iv
LSD1 [2] = biological target: T1, LSD1 (Macaca mulatta, UniProt I2CUD2); assay: PET imaging of the testes (baseline and TAK-418 blocking); conditions: TAK-418 3.0 mg/kg iv 120 min before tracer, M3
Procedure: TAK-418 (3 mg/kg) was administered as an intravenous bolus over 5-min, starting 120 min prior to [^18F]MNI-1054 administration.

LSD1 [3] = biological target: T1, LSD1; assay: LSD1 enzyme occupancy in brain from [18F]MNI-1054 PET blocking, self-block and repopulation studies; type: in vivo, rhesus monkeys (macaca mulatta); set-up: from tissue; host or cells: brain of living rhesus monkeys (M1, M2), in vivo PET; conditions: for Occupancy: from Ki
Procedure: M1 and M2 each completed a scan at baseline to assess brain penetration and kinetics and to serve as reference for the blocking and displacement studies. A self-block study with cold 3 mg/kg MNI-1054, starting 5 min prior to [^18F]MNI-1054 administration, was conducted in M1 to assess regional differences in non-specific binding.
Blocking studies with the LSD1 inhibitor TAK-418 ([…]) were performed to measure the dose-occupancy relationship for this compound. For blocking studies, TAK-418 was administered intravenously 2 h prior to [^18F]MNI-1054. Prior to conducting these blocking studies, a displacement study with TAK-418 (3 mg/kg) was performed to confirm irreversible tracer binding, in which TAK-418 was administered 1.5 h post [^18F]MNI-1054 administration. For all studies involving TAK-418, the test article was administered intravenously over 5 min. Due to the irreversible binding of these compounds to LSD1, the time taken for the enzyme to re-populate was investigated by imaging one animal (M2) with [^18F]MNI-1054 at 24 and 48 h post TAK-418 treatment (0.3 mg/kg). Each animal also underwent a high-resolution T1-weighted structural brain MRI scan with a 3-D MPRAGE sequence on a separate day for anatomical reference.
Regional occupancy due to TAK-418 or unlabeled MNI-1054 as measured with [^18F]MNI-1054 was computed as the percent change relative to the baseline value of Ki, i.e. where the drug was either TAK-418 or MNI-1054. An Emax model with maximum occupancy constrained to a value less than 100% was fitted to the dose-occupancy plot to estimate Omax (maximal occupancy) and ED50 [mg/kg] representing the injected TAK-418 dose yielding 50% LSD1 occupancy.

[4] = cerebellum, TAK-418 iv 2 h before tracer

For `O=C(NC1CCOCC1)c1csc([C@@H]2C[C@H]2NCC2CC2)c1` [TAK-418], the “TAK-418 levels in plasma” value ([1]; 24 and 48 hours post-dose, M2) was “no detectable levels; also recorded: below the level of detection”, the “plasma concentration as percent of its peak value” ([1]; after 5 h) was 0.45% and the “occupancy in the testes” value (LSD1 [2]; from fractional changes in a parameter other than Ki) was 94.4%. The “signal blockade in the testes” value (LSD1 [2]; compared with control leg muscle, 3 mg/kg) was “significant signal blockade; also recorded: substantial reduction”, the “Occupancy based on fractional changes in k3” value (LSD1 [3]; cerebellum, TAK-418 0.005 mg/kg, 2 h post-dose) was 2.4% and the Occupancy (LSD1 [3]; cerebellum, TAK-418 0.005 mg/kg, 2 h post-dose, M2) was −21.3%. For the same molecule, the “[18F]MNI-1054 Ki 2 h post-dose” value (LSD1 [3]; cerebellum, TAK-418 0.005 mg/kg, M2) was 0.057 mL/cm^3/min, the Occupancy (LSD1 [3]; cerebellum, TAK-418 0.01 mg/kg, 2 h post-dose, M1) was 47.3% and the “[18F]MNI-1054 Ki 2 h post-dose” value (LSD1 [3]; cerebellum, TAK-418 0.01 mg/kg, M1) was 0.030 mL/cm^3/min. The Occupancy (LSD1 [3]; cerebellum, TAK-418 0.03 mg/kg, 2 h post-dose, M2) was 62.5%, the “[18F]MNI-1054 Ki 2 h post-dose” value (LSD1 [3]; cerebellum, TAK-418 0.03 mg/kg, M2) was 0.017 mL/cm^3/min and the Occupancy (LSD1 [3]; cerebellum, TAK-418 0.3 mg/kg, 2 h post-dose, M1) was 89.9%. For the same molecule, the LSD1 enzyme occupancy (LSD1 [3]; cerebellum, TAK-418 0.3 mg/kg, 24 h post-dose, M2) was 29.8%, the “[18F]MNI-1054 Ki 2 h post-dose” value (LSD1 [3]; cerebellum, TAK-418 0.3 mg/kg, M1) was 0.006 mL/cm^3/min and the “half-life for occupancy to decrease to zero (proxy for LSD1 enzyme repopulation)” value (LSD1 [3]; cerebellum, TAK-418 0.3 mg/kg, exponential fit to 2, 24 and 48 h occupancy) was 12.28 h. The Occupancy (LSD1 [3]; cerebellum, TAK-418 3 mg/kg, 2 h post-dose, M1, 3 mg/kg) was 90.1%, the “[18F]MNI-1054 Ki 2 h post-dose” value (LSD1 [3]; cerebellum, TAK-418 3 mg/kg, M1) was 0.005 mL/cm^3/min and the “ED50 (Emax model fit)” value (LSD1 [3]; [4]) was 0.0224 mg/kg and ~ 0.0224 mg/kg. The “Omax (Emax model fit)” value (LSD1 [3]; [4]) was 95.6%, the “ED50 (Emax model fit)” value (LSD1 [3]; occipital cortex) was 0.0279 mg/kg and ~ 0.0279 mg/kg and the “Omax (Emax model fit)” value (LSD1 [3]; occipital cortex) was 77.3%. For the same molecule, the “ED50 (Emax model fit)” value (LSD1 [3]; pons) was 0.046 mg/kg and the “Omax (Emax model fit)” value (LSD1 [3]; pons) was 73.3%.
